The test system of one data set is Carragheenin foot edema. Kind of data set: Carragheenin foot edema. The format is in vivo, rats (male, Wister type). As to conditions: Rattus norvegicus; 100 mg/Kg oral, 1 h before carragheenin; foot volume 3 h after injection; read-out: Anti-Inflammatory Effect Control Ratio, Carragheenin Foot Edema. Here is the method:
a. Carragheenin food edema
The test was conducted according to the method of C. […] Groups of rats (male rats of the Wister type having a body weight of 140-170 g), each group consisting of 5 to 11 rats, were caused to abstain from food for 16 hours, and a 4% gum arabic suspension of a test compound was orally administered to the rats in an amount of 100 mg/Kg. of the test compounds. Immediately, rats were allowed to drink 5 ml of purified water. […] After 3 hours had passed from the injection, the volume of the right foot was measured again to determine the increase of the volume of the right foot. In control groups, only a 4% gum arabic liquor free of a test compound was orally administered, and subsequent procedures were conducted similarly to determine the increase of the volume of the right foot. The carragheenin foot edema control ratio was calculated according to the following formula: [formula] wherein C indicates the foot volume increase in the control group and D indicates the foot volume increase in the test compound-administered group.

For a further data set, the system named is Adjuvant arthritis. Briefly: Adjuvant arthritis. The format is in vivo, rats (female, Wister type). As to conditions: Rattus norvegicus, 552 h; 9 mg/Kg per day oral for 25 days; foot volume on 23rd day from adjuvant injection; read-out: Anti-Inflammatory Effect Control Ratio, Adjuvant Arthritis. On the procedure:
With respect to the foregoing compounds, anti-inflammatory effects against carragheenin foot edema, ultraviolet erythema and adjuvant arthritis were tested by using rate according to the following methods to obtain results shown below.
The test was conducted according to a modification of the method of B. B. Newbould (Brit. J. Pharmacol., 21, 127 (1963)). Groups of female rats of the Wister type having a body weight of 180 - 240 g, each group consisting of 4 to 8 rats, were tested. 0.05 ml of an adjuvant (formed by suspending 5 mg of dead tuberculous bacillus, Aoyama B strain, in 1 ml of fluid paraffin according to the Japanese pharmacopoeia) was hypodermically injected in the right foot heel of each rat. A test compound was orally administered in a dosage of 9 mg/Kg per day in the form suspended in a 5% gum arabic liquor continuously for 25 days from one day before the injection of the adjuvant. In the case of the control group, only a 5% gum arabic liquor was continuously administered in the same manner. The volume of the right foot was measured 1 day before the injection of the adjuvant and on the 23rd day from the injection of the adjuvant with respect to each group. Thus, the increase of the foot volume was calculated in either the test compound-administered group or the control group, and the ratio of control of the adjuvant arthritis was calculated according to the following formula: [formula] in which C is the increase of the volume of the right foot in the control group and D indicates the increase of the volume of the right foot in the test compound-administered rat group.

A short description of data set [1]: in vivo. As to conditions: mouse, in vivo, po. On the procedure:
(§1) With respect to the foregoing test compounds, the acute toxicity was examined by employing mice according to the following method.
(§2) Groups of male mice of the dd type having a body weight of 18 to 22 g, each, group consisting of 5 mice, were tested to determine the acute toxicity. The test compound was orally administered in a dosage indicated in Table 3a in the form suspended in 5% gum arabic liquor. The determination was conducted 7 days after the administration. Further, the LD50 values were calculated according to the method of Lichfield-Wilcoxon.

The subject of a further data set is male mice. Briefly: in vivo. The note with it: 7 days. On the procedure:
as §1, §2

Data set [2] in a line: in vivo. As to conditions: rat, po.
The subject of a further data set is inflammatory pain. Kind of data set: Analgesic effect on inflammatory pain (modified Randall and Selitto). The format is in vivo, rats (male, Wister type). The note with it: 100 mg/Kg oral, 1 hour before carragheenin; pain measured 3 hours after injection. On the procedure:
Groups of male rats of the Wister type having a body weight of about 150 g were tested, each group consisting of 5 rats. The rats were caused to abstain from food overnight, and 0.05 ml of a 1% carragheenin solution was hypodermically injected into the right hind leg of each rat. […] The test compound was orally administered in a dosage of 100 mg/Kg 1 hour before the injection of carragheenin. [formula]

Another data set relates to Ultraviolet erythema. Briefly: Ultraviolet erythema. The format is in vivo, guinea pigs (male, Hartley type). The note with it: Cavia porcellus, light or radiation study; 10 mg/Kg oral, 1 h before irradiation; read 3 h after irradiation; read-out: Anti-Inflammatory Effect Control Ratio, Ultraviolet Erythema. Here is the method: The test was conducted according to a modification of the method of C. […] Groups of guinea pigs (male guinea pigs of the Hartley type having a body weight of 300 to 450 g), each group consisting of 5 to 10 guinea pigs, were employed for the test. Hairs were removed from backs of the guinea pigs by an electric hair-clipper and a depilatory agent. The guinea pigs were caused to abstain from food for 18 to 19 hours, and a test compound was orally administered in an amount of 10 mg/Kg in the form suspended in a 4% gum arabic liquor. In the case of control groups, only a 4% gum arabic liquor was administered. An adhesive plaster according to the Japanese pharmacopoeia, on which three small holes having a diameter of 5 mm were opened, was applied to the hair-removed portion of the back. […] When 3 hours had passed from the irradiation, the degree of the formation of erythema was determined. One point was given to the guinea pig on which a definite round erythema was formed, a point of 0.5 was given to the guinea pig on which formation of erythema was observed but its contour was not definite, and a point of 0 was given to the guinea pig on which no erythema was formed. Total points were calculated in both the test compound-administered group and the control group, and the control ratio was calculated from these total points. [formula]

A value given as a limit tells only on which side of the number the result lay.

What is called LD50 is the dose at which mortality reaches 50%. The low end stands for a more toxic substance, the high end for a less toxic substance. Take `O=C(O)c1ccccc1Nc1cccc(C(F)(F)F)c1` [Compound F, flufenamic acid, reference compound]: in the data set on Carragheenin foot edema, the inhibition in vivo at 100 mg/kg was 60.7%. Further, the inhibition in vivo at 9 mg/kg with Adjuvant arthritis turned out to be 72.4%. The LD50 at 168 h in “in vivo [1]” came out at 545 mg/kg. The “Number of Dead Mice/Number of Mice Tested” value in the data set on male mice (1 g/kg oral) and with male mice (2 g/kg oral) was 5 / 5 in each case. Also, the median lethal dose (LD50) in “in vivo [2]” was 270 mg/kg. Further, the “Analgesic Coefficient” value in the data set on inflammatory pain turned out to be 1.42. Also, in the data set on Ultraviolet erythema, the inhibition in vivo at 10 mg/kg is 60%.

For `O=C(O)c1ccccc1Nc1ccc(Cl)c2ccccc12` [Compound 1, n-(4-chloro-1-naphthyl)anthranilic acid], in the data set with Carragheenin foot edema, the inhibition in vivo at 100 mg/kg was 25.7%. In addition, the inhibition in vivo at 9 mg/kg with Adjuvant arthritis turned out to be 7.5%. In addition, the median lethal dose (LD50) at 168 h in the data set “in vivo [1]” is above 12000 mg/kg. Besides, the “Number of Dead Mice/Number of Mice Tested” value is 0 / 5 with male mice (1 g/kg oral), 0 / 5 in the data set with male mice (2 g/kg oral), 0 / 5 in the data set with male mice (3 g/kg oral) and 3 / 5 in the data set with male mice (4 g/kg oral). The compound also yielded a median lethal dose (LD50) in the data set “in vivo [2]” above 10000 mg/kg. Further, in the data set on inflammatory pain, the “Analgesic Coefficient” value is 1.36. The inhibition in vivo at 10 mg/kg in the data set on Ultraviolet erythema is 38%.

Consider `O=C(O)c1ccccc1Nc1c(Cl)cc(Cl)c2ccccc12` [Compound 2, N-(2,4-dichloro-1-naphthyl)anthranilic acid], for which the inhibition in vivo at 100 mg/kg in the data set on Carragheenin foot edema worked out at 27%. The inhibition in vivo at 9 mg/kg in the data set on Adjuvant arthritis worked out at 53.5%. The LD50 at 168 h in “in vivo [1]” was above 12000 mg/kg. Besides, the “Number of Dead Mice/Number of Mice Tested” value in the data set with male mice (1 g/kg oral), with male mice (2 g/kg oral), in the data set on male mice (3 g/kg oral) and in the data set on male mice (4 g/kg oral) was 0 / 5 throughout. In the data set “in vivo [2]”, this compound had an LD50 of 8500 mg/kg. Further, the “Analgesic Coefficient” value in the data set on inflammatory pain is 1.70. Moreover, the inhibition in vivo at 10 mg/kg in the data set with Ultraviolet erythema was determined as 68.9%.

(Values after US3989746A, “Substituted naphthyl anthranilic acids” (Ikeda Mohando Co., Ltd., priority 1972, dated 1976).)
